Test: Binding affinity to dsDNA oligomer GAGGCCTC (unknown origin) assessed as binding constant incubated for 16 hrs in presence of […] by fluorescence based assay

Kd	Compound
1.6 µM	COC(=O)[C@H](Cc1ccccc1)NC(=O)[C@@H](OC)[C@@H]1Cc2cc3cc(O[C@H]4C[C@@H](O[C@H]5C[C@@H](O)[C@H](O)[C@@H](C)O5)[C@H](O)[C@@H](C)O4)c(C)c(O)c3c(O)c2C(=O)[C@H]1O[C@H]1C[C@@H](O[C@H]2C[C@@H](O[C@H]3C[C@](C)(O)[C@H](O)[C@@H](C)O3)[C@H](O)[C@@H](C)O2)[C@H](O)[C@@H](C)O1
< 1 µM	CO[C@H](C(=O)[C@@H](O)[C@@H](C)O)[C@@H]1Cc2cc3cc(O[C@H]4C[C@@H](O[C@H]5C[C@@H](O)[C@H](O)[C@@H](C)O5)[C@H](O)[C@@H](C)O4)c(C)c(O)c3c(O)c2C(=O)[C@H]1O[C@H]1C[C@@H](O[C@H]2C[C@@H](O[C@H]3C[C@](C)(O)[C@H](O)[C@@H](C)O3)[C@H](O)[C@@H](C)O2)[C@H](O)[C@@H](C)O1

From ChEMBL document CHEMBL4373639, “How mithramycin stereochemistry dictates its structure and DNA binding function” (Medchemcomm, 2019)
